Measurements taken from publication PMC10741979, “Inhibition of NMDA Receptor Activation in the Rostral Ventrolateral Medulla by Amyloid-β Peptide in Rats” (Biomolecules, 2023).

Tests used:
Type in all cases: in vivo, rats
[1] = system: NMDA receptors in the RVLM; test: Pressor response to microinjection of NMDA into the RVLM; settings: 0.14 nmol
From the text: (§1) The procedure for ICV administration of anesthetized rats was similar to those described in our previous study. Adult male Sprague Dawley 8–10 weeks old rats (300–400 g) were used in this experiment under urethane anesthetized (1.2–1.5 g/kg i.p.). The femoral artery was cannulated with polyethylene tubing (PE 50) and connected with its output to BIOPAC Systems Inc. (MP100 or MP160) to measure pulsatile and mean arterial pressure. After a set of blood pressure recordings, each rat was arranged in a stereotaxic frame for ICV and RVLM microinjection using a stainless still needle connected to the Hamilton microsyringes (10 µL). Drugs were microinjected using a syringe pump (KDS 100) at a rate of 10 µL/min. The magnitude of increases in the blood pressure (pressor responses) induced by microinjection of NMDA (0.14 nmol, 100 nL) into the RVLM every 30 min was used as an index of NMDA receptor function in the RVLM. Aβ and 0.9% saline (5 µL) were applied intracerebroventricularly. The data were processed and calculated before the treatment and at a different period after drug administration.

[2] = system: NMDA receptors in the RVLM; test: NMDA-induced pressor responses in the RVLM after ICV drug administration
From the text: as §1
All values are expressed as mean ± SEM and statistically analyzed using GraphPad Prism version 9.0 for Windows (GraphPad Software, San Diego, CA, USA). We analyzed the original data for NMDA-induced increases in MAP (mmHg) before and after applications of Aβ statistically. The time-effect relationship of Aβ on NMDA-induced pressor responses was analyzed using the repeated measure one-way ANOVA followed by Bonferroni’s multiple comparison post-test. p ≤ 0.05 is considered statistically significant. We compared the effects of Aβ on NMDA-increased mean arterial pressure to the control and expressed them as percentage changes; the peak amplitude of NMDA-induced pressor responses before the application of Aβ is taken as control (i.e., 100%). Immunohistochemical data and ELISA data were analyzed using an unpaired t-test. p ≤ 0.05 is considered statistically significant.

GluN1 = test: Immunohistochemistry, number of GluN1-immunoreactive neurons in the RVLM; settings: 10 min after ICV 2 nmol; mean ± SEM, n = 6; saline group 63.2 ± 2.4; no significant difference
Description: (§2) The procedure of immunostaining of RVLM tissue sections was similar to those previously described. The animals were anesthetized with i.p. urethane (1.2–1.5 g/kg). The rat was sacrificed at 10 min following ICV administration of Aβ or saline by transcardial perfusion with 50 mL of saline followed by 300–400 mL of paraformaldehyde (4%) in 0.1 M phosphate buffer (pH 7.4). The RVLM was post-fixed in the same fixative overnight and then cryoprotected in 30% sucrose in 0.05 M phosphate buffer (pH 7.4) for 48 h. Coronal brainstem sections (30 μm) were cut through the segments using a cryostat (Leica CM3050S, Leica Microsystems Nussloch GmbH, Nussloch, Germany). […] For the relative quantification of immunoreactivity, each image field was captured using a CCD camera mounted on a microscope (Nikon Eclipse E800, Corporation, Tokyo, Japan). […] The average number of immunoreactive (IR) neurons on both sides per section was counted and averaged. We randomly took 4–6 sections per animal and calculated the average number of IR neurons representing the animal’s immunoreactivity to the antibody.
(§3) All values are expressed as mean ± SEM and statistically analyzed using GraphPad Prism version 9.0 for Windows (GraphPad Software, San Diego, CA, USA). We analyzed the original data for NMDA-induced increases in MAP (mmHg) before and after applications of Aβ statistically. […]

pGluN1-serine896 = test: Immunohistochemistry, number of pGluN1-serine896-immunoreactive neurons in the RVLM; settings: 10 min after ICV 2 nmol; mean ± SEM, n = 6; saline group 48.9 ± 1.8; no significant difference
Description: as §2, §3

GluN2B = test: Immunofluorescence, number of GluN2B-IF neurons in the RVLM; settings: 10 min after ICV 2 nmol; mean ± SEM, n = 7; saline group 55.2 ± 1.4
Description: as §2, §3

pGluN2B-serine1480 = test: Immunofluorescence, number of pGluN2B-serine1480-IF neurons in the RVLM; settings: 10 min after ICV 2 nmol; mean ± SEM, n = 6; saline group 45.9 ± 1.0 (n = 8); significant difference
Description: as §2, §3

[3] = ICV 2 nmol (Aβ1-40 n = 14, Aβ1-42 n = 9), NMDA 0.14 nmol into RVLM every 30 min, urethane-anesthetized male SD rats

`CN[C@H](CC(=O)O)C(=O)O` [NMDA, N-methyl-D-aspartate] was tested, and the “duration of pressor responses” value ([1]; 100 nL into RVLM) was 10 to 15 min, the “onset of pressor responses” value ([1]; 100 nL into RVLM) was ≤ 2 min and the “effect of microinjection into the RVLM on MAP” value ([1]; 100 nL, at intervals of 30 min, urethane-anesthetized male SD rats) was “induced an increase in MAP”.
For `CC12CC3CC(C)(C1)CC(N)(C3)C2` [memantine], the “effect on NMDA-induced pressor responses in the RVLM” value ([2]; ICV 9 nmol alone, n = 6, 10 and 40 min after administration) was “did not produce any noticeable changes” and the “effect of co-administration on the inhibitory effects of Aβ1-40 on NMDA-induced pressor responses” value ([2]; ICV memantine 9 nmol with Aβ1-40 2 nmol, n = 4) was “disappeared”.
With “Aβ1-42: soluble human amyloid-beta peptide 1-42, purchased from Taiclone Biotech Corp.” the “effect on NMDA-induced pressor responses in the RVLM” value [2, 3] was “did not produce any noticeable changes”, the “effect on NMDA-induced pressor responses in the RVLM on co-administration with ifenprodil” value ([2]; ICV Aβ1-42 2 nmol with ifenprodil 0.5 nmol, n = 6) was “little effect” and the “effect on NMDA-induced pressor responses in the RVLM on co-administration with memantine” value ([2]; ICV Aβ1-42 2 nmol with memantine 9 nmol, n = 6) was “did not show noticeable changes”.
With `CC(C(O)c1ccc(O)cc1)N1CCC(Cc2ccccc2)CC1` (centres unmarked) [ifenprodil] the “effect on NMDA-induced pressor responses in the RVLM” value ([2]; ICV 0.5 nmol alone, n = 5) was “did not produce any noticeable changes”, the “effect on NMDA-induced pressor responses in the RVLM” value ([2]; ICV 2.5 nmol alone, n = 5) was “significantly inhibited” and the “effect of co-administration on the inhibitory effects of Aβ1-40 on NMDA-induced pressor responses” value ([2]; ICV ifenprodil 0.5 nmol with Aβ1-40 2 nmol, n = 6) was “attenuated the inhibitory effects”.
In the case of “Aβ1-40: soluble human amyloid-beta peptide 1-40, purchased from Taiclone Biotech Corp.”, the “effect on NMDA-induced pressor responses in the RVLM” value ([2]; ICV 0.2 nmol, n = 12, NMDA 0.14 nmol into RVLM every 30 min, urethane-anesthetized male SD rats) is reported as “slight reduction”, the “effect on NMDA-induced pressor responses in the RVLM” value [2, 3] is reported as “significantly inhibited” and the “number of GluN1-IR neurons in the RVLM” value (GluN1) is reported as 63.2 ± 3.8. The “number of pGluN1-serine896-IR neurons in the RVLM” value (pGluN1-serine896) was 46.4 ± 0.8, the “number of GluN2B-IF neurons in the RVLM” value (GluN2B) was 59.2 ± 2.7 and the “number of pGluN2B-serine1480-IF neurons in the RVLM” value (pGluN2B-serine1480) was 52.6 ± 2.0.
